This is an account of results in US20080153907A1, “Pharmaceutical Composition for the Treatment of Cancer Comprising Lhm-Ra Complex” (NANOHYBRID CO., LTD., priority 2005, published 2008).

Test [1] concerns CHX tumor cells. Nature of the test: Activity of lactic acid dehydrogenase associated with apoptotic cell death. It counts as cell-based. Particulars: 250 μg/ml of RA, 12 hours. The procedure:
In order to evaluate an anticancer effect of a LDH-RA hybrid obtained according the present invention, activity of lactic acid dehydrogenase associated with apoptotic cell death was measured. For this, the CHX tumor cells were seeded into each well of a 96-well plate. The CHX tumor cells were divided into 6 groups: normal group with no treatment, LDH-dose group with 1,000 μg/ml of LDH, RA-dose group with 250 μg/ml of RA, LDH-RA low-dose group with 25 μg/ml of LDH-RA, LDH-RA mid-dose group with 50 μg/ml of LDH-RA, and LDH-RA high-dose group with 100 μg/ml of LDH-RA. All groups were cultured for 12 hours. 20 μl of pyruvate substrate (NADH 1 mg/ml) was added to each group, and the cultures were mixed at room temperature for 2 minutes and stirred at 37° C. for 30 minutes. 20 μl of a color reagent (Sigma 505-2) was added to each culture, and the resultant cultures were mixed at room temperature for 20 minutes. 100 μg of 0.4N NaOH was added to each culture, and the resultant cultures were mixed at room temperature for 15 minutes. Referring to FIG. 9, the activities of lactic acid dehydrogenase of the normal group, the LDH-dose group, and the RA-dose group were 6±1.5%, 13±2%, and 42±5%, respectively. The activities of lactic acid dehydrogenase of the LDH-RA low-dose group, the LDH-RA mid-dose group, and the LDH-RA high-dose group were 41±2%, 76±6%, and 86±5%, respectively. […]

Test [2] deals with CHX tumor cells. Briefly: Tumor development in xenografted nude mice (tumor size). Particulars: RA 0.5 mg/ml, LDH-RA 50 μg/ml, every two weeks for 8 weeks; control tumor 30 mm after 8 weeks. Type of test: in vivo, athymic nude mice. The procedure: (§1) The CHX tumor cells were collected at 1×10^7 cells/well and administered subcutaneously to the hind legs of athymic nude mice. Appearance of tumor mass was observed every week. Tumor masses appeared 3 weeks after the subcutaneous administration, and, when a tumor size was increased to 5 mm, one group of the mice was untreated (control group), and the other groups of the mice were treated as follows: a LDH-dose group with LDH (1 mg/ml), a RA-dose group with RA (0.5 mg/ml), and a LDH-RA dose group with LDH-RA (50 μg/ml). The LDH-dose group, the RA-dose group, and the LDH-RA dose group were further treated with LDH, RA, and LDH-RA, respectively, every two weeks for 8 weeks. Referring to FIG. 12, in the control group, a tumor size was increased to 30 mm after 8 weeks. […] In the RA-dose group, a tumor size was reduced by about 20%. In the LDH-RA dose group, a tumor size was reduced by 80% or more. After then, the mice were anesthetized. Tumor tissues were cut, fixed in formalin, and cut into sections (5 μm thick) on a microtome. The sections were stained with hematoxylin/eosin (H/E) and examined with a microscope (50× magnification), and the results are shown in FIG. 13. Referring to FIG. 13, in the control group, tumor masses were found in almost all tissues, thereby causing growth retardation of tumor, resulting in necrosis. […]

In test [3] the test system is CHX tumor cells. Nature of the test: H/E staining of tumor tissues from xenografted nude mice. Type of test: in vivo, athymic nude mice. Particulars: RA 0.5 mg/ml, every two weeks for 8 weeks. The procedure:
as §1

With `CC1=C(/C=C/C(C)=C/C=C/C(C)=C/C(=O)O)C(C)(C)CCC1` [RA, retinoic acid], the “activity of lactic acid dehydrogenase” value in the test on CHX tumor cells [1] is 42±5%. In the test on CHX tumor cells [2], the “tumor size reduced by” value is recorded as “about 20%”. In the test with CHX tumor cells [3], the “reduction in tumor tissues (H/E staining)” value turned out to be 15%.
